Data from PubChem BioAssay (NCI).
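Five concentrations, 48 hours, 96-well plates. TGI: concentration producing complete growth inhibition.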

How the values were obtained:
Assay in all cases: DTP human tumour cell line panel, 48 h
[1] = system: SR leukemia
[2] = system: MCF7 breast
[3] = system: HOP-62 NSCLC
[4] = system: MDA-MB-435
[5] = system: 786-0 renal
[6] = system: OVCAR-4 ovarian
[7] = system: A549 NSCLC
[8] = system: SF-539 CNS
[9] = system: MOLT-4 leukemia
[10] = system: NCI-H23 lung
[11] = system: RPMI-8226 leukemia
[12] = system: MDA-N
[13] = system: TK-10 renal
[14] = system: HCC-2998 colon
[15] = system: SNB-19 CNS
[16] = system: UO-31 renal
[17] = system: SK-OV-3 ovarian
[18] = system: K-562 leukemia
[19] = system: EKVX NSCLC
[20] = system: NCI-H460 lung
[21] = system: OVCAR-3 ovarian
[22] = system: MALME-3M melanoma
[23] = system: HCT-15 colon
[24] = system: T-47D breast
[25] = system: SF-268 CNS
[26] = system: BT-549 breast
[27] = system: SN12C renal
[28] = system: UACC-257 melanoma
[29] = system: OVCAR-5 ovarian
[30] = system: CCRF-CEM leukemia
[31] = system: HOP-92 NSCLC
[32] = system: NCI-H522 lung
[33] = system: M14 melanoma
[34] = system: KM12 colon
[35] = system: UACC-62 melanoma
[36] = system: DU-145 prostate
[37] = system: HL-60(TB) leukemia
[38] = system: SNB-75 CNS
[39] = system: RXF 393 renal
[40] = system: HCT-116 colon
[41] = system: SK-MEL-2 melanoma
[42] = system: SK-MEL-28 melanoma
[43] = system: LOX IMVI melanoma
[44] = system: HT29 colon
[45] = system: U251 CNS
[46] = system: OVCAR-8 ovarian
[47] = system: NCI-H226 lung
[48] = system: CAKI-1 renal
[49] = system: NCI/ADR-RES ovarian
[50] = system: SW-620 colon
[51] = system: ACHN renal
[52] = system: COLO 205 colon
[53] = system: HS 578T breast
[54] = system: MDA-MB-231 breast
[55] = system: SF-295 CNS
[56] = system: IGROV1 ovarian
[57] = system: SK-MEL-5 melanoma
[58] = system: PC-3 prostate
[59] = system: A498 renal

Work on `CCOC(=O)c1ccc(C(=O)OCC)n1-c1cc2cc(c1)CSCc1cc(cc(-n3c(C(=O)OCC)ccc3C(=O)OCC)c1)CSC2` yielded a TGI [1] greater than 10 µM, a TGI [2] greater than 10 µM and a TGI [3] greater than 10 µM. It also gave a TGI [4] greater than 10 µM, a TGI [5] greater than 10 µM and a TGI [6] greater than 10 µM. It also gave a TGI [7] greater than 10 µM, a TGI [8] greater than 10 µM and a TGI [9] greater than 10 µM. For the same compound, the TGI [10] was greater than 10 µM, the TGI [11] was greater than 10 µM and the TGI [12] was greater than 10 µM. It also gave a TGI [13] greater than 10 µM, a TGI [14] greater than 10 µM and a TGI [15] greater than 10 µM. For the same compound, the TGI [16] was greater than 10 µM, the TGI [17] was greater than 10 µM and the TGI [18] was greater than 10 µM. For the same compound, the TGI [19] was greater than 10 µM, the TGI [20] was greater than 10 µM and the TGI [21] was greater than 10 µM. It also gave a TGI [22] greater than 10 µM, a TGI [23] greater than 10 µM and a TGI [24] greater than 10 µM. The TGI [25] was greater than 10 µM, the TGI [26] was greater than 10 µM and the TGI [27] was greater than 10 µM. The TGI [28] was greater than 10 µM, the TGI [29] was greater than 10 µM and the TGI [30] was greater than 10 µM. It also gave a TGI [31] greater than 10 µM, a TGI [32] greater than 10 µM and a TGI [33] greater than 10 µM. For the same compound, the TGI [34] was greater than 10 µM, the TGI [35] was greater than 10 µM and the TGI [36] was greater than 10 µM. For the same compound, the TGI [37] was greater than 10 µM, the TGI [38] was greater than 10 µM and the TGI [39] was greater than 10 µM. For the same compound, the TGI [40] was greater than 10 µM, the TGI [41] was greater than 10 µM and the TGI [42] was greater than 10 µM. It also gave a TGI [43] greater than 10 µM, a TGI [44] greater than 10 µM and a TGI [45] greater than 10 µM. The TGI [46] was greater than 10 µM, the TGI [47] was greater than 10 µM and the TGI [48] was greater than 10 µM. For the same compound, the TGI [49] was greater than 10 µM, the TGI [50] was greater than 10 µM and the TGI [51] was greater than 10 µM. The TGI [52] was greater than 10 µM, the TGI [53] was greater than 10 µM and the TGI [54] was greater than 10 µM. For the same compound, the TGI [55] was greater than 10 µM, the TGI [56] was greater than 10 µM and the TGI [57] was greater than 10 µM. It also gave a TGI [58] greater than 10 µM.
`O=c1n(/N=C/c2ccccc2)c(=O)n2n1C1C=CC2CC1` showed a TGI [1] greater than 100 µM, a TGI [2] greater than 100 µM and a TGI [3] greater than 100 µM. The TGI [4] was greater than 100 µM, the TGI [5] was greater than 100 µM and the TGI [7] was greater than 100 µM. It also gave a TGI [8] greater than 100 µM, a TGI [9] greater than 100 µM and a TGI [10] greater than 100 µM. It also gave a TGI [11] greater than 100 µM, a TGI [12] greater than 100 µM and a TGI [13] greater than 100 µM. It also gave a TGI [15] greater than 100 µM, a TGI [16] greater than 100 µM and a TGI [17] greater than 100 µM. It also gave a TGI [18] greater than 100 µM, a TGI [19] greater than 100 µM and a TGI [20] greater than 100 µM. It also gave a TGI [21] greater than 100 µM, a TGI [23] greater than 100 µM and a TGI [24] greater than 100 µM. For the same compound, the TGI [25] was greater than 100 µM, the TGI [26] was greater than 100 µM and the TGI [27] was greater than 100 µM. It also gave a TGI [28] greater than 100 µM, a TGI [29] greater than 100 µM and a TGI [30] greater than 100 µM. The TGI [31] was greater than 100 µM, the TGI [33] was greater than 100 µM and the TGI [34] was greater than 100 µM. It also gave a TGI [35] greater than 100 µM, a TGI [36] greater than 100 µM and a TGI [37] greater than 100 µM. The TGI [38] was greater than 100 µM, the TGI [40] was greater than 100 µM and the TGI [41] was greater than 100 µM. The TGI [42] was greater than 100 µM, the TGI [43] was greater than 100 µM and the TGI [44] was greater than 100 µM. The TGI [45] was greater than 100 µM, the TGI [46] was greater than 100 µM and the TGI [47] was greater than 100 µM. It also gave a TGI [48] greater than 100 µM, a TGI [49] greater than 100 µM and a TGI [50] greater than 100 µM. The TGI [51] was greater than 100 µM, the TGI [59] was greater than 100 µM and the TGI [52] was greater than 100 µM. The TGI [53] was greater than 100 µM, the TGI [54] was greater than 100 µM and the TGI [55] was greater than 100 µM. It also gave a TGI [56] greater than 100 µM, a TGI [57] greater than 100 µM and a TGI [58] greater than 100 µM.
Compound `CCOC(=O)/C(O)=C(/C=N\C(=S)Nc1ccccc1Cl)C(=O)OCC` has a TGI [1] greater than 100 µM, a TGI [2] greater than 100 µM and a TGI [3] greater than 100 µM. For the same compound, the TGI [4] was greater than 100 µM, the TGI [5] was greater than 100 µM and the TGI [6] was greater than 100 µM. The TGI [7] was greater than 100 µM, the TGI [8] was greater than 100 µM and the TGI [9] was greater than 100 µM. It also gave a TGI [10] greater than 100 µM, a TGI [11] greater than 100 µM and a TGI [12] greater than 100 µM. It also gave a TGI [14] greater than 100 µM, a TGI [15] greater than 100 µM and a TGI [16] greater than 100 µM. It also gave a TGI [17] greater than 100 µM, a TGI [18] greater than 100 µM and a TGI [19] greater than 100 µM. The TGI [20] was greater than 100 µM, the TGI [21] was greater than 100 µM and the TGI [22] was greater than 100 µM. It also gave a TGI [23] greater than 100 µM, a TGI [24] greater than 100 µM and a TGI [25] greater than 100 µM. It also gave a TGI [27] greater than 100 µM, a TGI [28] greater than 100 µM and a TGI [29] greater than 100 µM. It also gave a TGI [30] greater than 100 µM, a TGI [31] of 90.9 µM and a TGI [32] greater than 100 µM. For the same compound, the TGI [33] was greater than 100 µM, the TGI [34] was greater than 100 µM and the TGI [35] was greater than 100 µM. It also gave a TGI [36] greater than 100 µM, a TGI [37] greater than 100 µM and a TGI [38] greater than 100 µM. For the same compound, the TGI [39] was greater than 100 µM, the TGI [40] was greater than 100 µM and the TGI [41] was greater than 100 µM. For the same compound, the TGI [42] was greater than 100 µM, the TGI [43] was greater than 100 µM and the TGI [44] was greater than 100 µM. For the same compound, the TGI [45] was greater than 100 µM, the TGI [46] was greater than 100 µM and the TGI [47] was greater than 100 µM. The TGI [48] was greater than 100 µM, the TGI [49] was greater than 100 µM and the TGI [50] was greater than 100 µM. The TGI [51] was greater than 100 µM, the TGI [59] was greater than 100 µM and the TGI [52] was greater than 100 µM. The TGI [53] was greater than 100 µM, the TGI [54] was greater than 100 µM and the TGI [55] was greater than 100 µM. The TGI [56] was greater than 100 µM, the TGI [57] was greater than 100 µM and the TGI [58] was greater than 100 µM.
